Read-outs that look alike come from different tables or passages of the source. Numbered stars: 1 amine (or outer) side, 2 acyl side, 3 side chain; on linkers, the order of the positions; unused ones are H or OH. Square brackets hold non-standard residues; d marks the D form. Ends that are not written are not given here. Peptide text beside a SMILES is read from it. X1 = O=C(O)C[C@@H](C(=O)[*:2])N(C[C@H](O)[C@@H](O)[C@H](O)[C@H](O)CO)[*:1]; sY = N[C@@H](Cc1ccc(OS(=O)(=O)O)cc1)C(=O)O
Columns and labels:
[1] = Effects of mouse serum on in vitro degradation of peptides (HPLC); assay type: in vitro ADME
Description: Effects of mouse serum on degradation of CCK-8, Asp^1glucitol CCK-8 and pGlu-Gln CCK-8. Serum (20 μl) from fasted Swiss TO mice was incubated at 37° C. with 10 μg of either native CCK-8, Asp^1-glucitol CCK-8 or pGlu-Gln CCK-8 for periods up to 2 h in a reaction mixture (final vol. 500 μl ) containing 50 mmol/l triethanolamine/HCl buffer pH 7.8. The reaction was stopped by addition of 5 μl of TFA and the final volume adjusted to 1.0 ml using 0.1% (v/v) TFA/water. Samples were centrifuged (13,000 g, 5 min) and the supernatant applied to a C-18 Sep-Pak cartridge (Waters/Millipore) which was previously primed and washed with 0.1% (v/v) TFA/water. After washing with 20 ml 0.12% TFA/water, bound material was released by elution with 2 ml of 80% (v/v) acetonitrile/water and concentrated using a Speed-Vac concentrator (AES 1000, Savant). The volume was adjusted to 1.0 ml with 0.12% (v/v) TFA/water and applied to a (250×4.6 mm) Vydac C-18 column pre-equilibrated with 0.12% (v/v) TFA/water at a flow rate of 1.0 ml/min. The concentration of acetonitrile in the eluting solvent was raised from 0 to 31.5% over 15 min, from 31.5 to 38.5% over 30 min, and from 38.5 to 70% over 5 min, using linear gradients monitoring eluting peaks at 206 nm.

Swiss TO mice = experiment: Voluntary food intake in fasted Swiss TO mice after i.p. injection; assay type: in vivo, mouse
Description: Effects of CCK-8, Asp^1glucitol CCK-8, pGlu-Gln CCK-8 and other peptides on food intake in mice. Studies to evaluate the relative potencies of control CCK-8, Asp^1-glucitol CCK-8, pGlu-Gln CCK-8 and other peptides involved in regulation of feeding were performed using male Swiss TO mice (n=16) aged 7-12 weeks from a colony originating from the Behavioral and Biomedical Research Unit, University of Ulster. The animals were housed individually in an air-conditioned room at 22±2° C. with 12 h light/12 h dark cycle. Drinking water was supplied ad libitum and standard mouse maintenance diet (Trouw Nutrition, Cheshire, UK) was provided for various times as indicated below. The mice were habituated to a daily feeding period of 3 h/day by progressively reducing the feeding period over a 3 week period. On days 1-6, food was supplied from 10.00 to 20.00 h, days 7-14 from 10.00 to 16.00 h and days 15-21 food was restricted to 10.00 to 13.00 h. Body weight, food and water intake were monitored daily.
(§1) Mice which had been previously habituated to feeding for 3 h/day were administered a single i.p. injection of saline (0.9% w/v NaCl, 10 ml/kg) in the fasted state (10.00 h) and food was immediately returned following injection. Two days after the saline injection, mice were randomly allocated into groups of 7-8 animals which were administered a single i.p. injection (from 1 to 100 nmol/kg) of either CCK-8, structurally modified CCK-8 analogues and/or other peptide hormones (including, bombesin, leptin and islet amyloid polypeptide (IAPP)). Food intake was carefully monitored at 30 min intervals up to 180 min post injection. In one series of experiments, the ability of CCK-8 and Asp^1-glucitol CCK-8 to inhibit feeding activity was studied in overnight fasted adult obese hyperglycaemic (ob/ob) mice. All animal studies were done in accordance with the Animals (Scientific Procedures) Act 1986.
Statistical analysis. Groups of data are presented as means±SE. Statistical evaluation was performed using analysis of variance, least significant difference multiple comparisons test and Student's unpaired t-test as appropriate. Differences were considered to be significant if P<0.05.

[2] = system: obese diabetic (ob/ob) mice; experiment: Voluntary food intake in fasted obese diabetic (ob/ob) mice after i.p. injection; assay type: in vivo, mouse; details: 100 nmol/kg i.p.
Description: as §1
FIG. 4 Effect of CCK-8, Asp^1-glucitol CCK-8 or saline on voluntary food intake in obese diabetic (ob/ob) mice. Saline or test agents were administered by i.p. injection (100 nmol/kg) to fasted obese diabetic (ob/ob) mice at time 0 immediately before introduction of food. Cumulative food intake was monitored at 30, 60, 90, 120, 150, 180, 210, 240, 270 and 300 min post injection. Values are means±SE of 8 observations. […]

[3] = generally accepted; cited from earlier work

CSCC[C@H](NC(=O)[C@H](Cc1ccc(OS(=O)(=O)O)cc1)NC(=O)[C@H](CC(=O)O)NC[C@H](O)[C@@H](O)[C@H](O)[C@H](O)CO)C(=O)NCC(=O)N[C@@H](Cc1c[nH]c2ccccc12)C(=O)N[C@@H](CCSC)C(=O)N[C@@H](CC(=O)O)C(=O)N[C@@H](Cc1ccccc1)C(N)=O [Asp^1-glucitol CCK-8] (H-[X1][sY]MGWMDF-NH2)
% Total CCK-like material [1]: 100% | remaining at 1 h, 20 µg/ml ([1]; Swiss TO, mouse, serum, pH 7.8): 100% | remaining at 2 h, 20 µg/ml ([1]; Swiss TO, mouse, serum, pH 7.8): 100% | potency at reducing food intake compared to equivalent dose of CCK-8 (Swiss TO mice; 100 nmol/kg i.p., FIG. 3): significantly more potent at reducing food intake at each time point (except at 30 min) | sustained inhibition of cumulative food intake over 3 h compared to saline (Swiss TO mice; 100 nmol/kg i.p., FIG. 3, up to 180 min): sustained over the 3 h post-treatment feeding period | dose-response effects on food intake compared with CCK-8 (Swiss TO mice; 1 to 100 nmol/kg i.p., FIGS. 5-7): more prolonged effects at lower doses | potency compared with native CCK-8 ([2]; FIG. 4): considerable more potent | effect on voluntary food intake ([2]; FIG. 4, up to 300 min): significantly reduce voluntary food intake

CSCC[C@H](NC(=O)[C@H](Cc1ccc(OS(=O)(=O)O)cc1)NC(=O)[C@@H](N)CC(=O)O)C(=O)NCC(=O)N[C@@H](Cc1c[nH]c2ccccc12)C(=O)N[C@@H](CCSC)C(=O)N[C@@H](CC(=O)O)C(=O)N[C@@H](Cc1ccccc1)C(N)=O [CCK-8, Asp^1Tyr^2(SO3H)-Met^3Gly^4Trp^5Met^6Asp^7Phe^8amide]
metabolised at 1 h, 20 µg/ml ([1]; Swiss TO, pH 7.8, after 1 h incubation with mouse serum, read-out: % converted to CCK-8 fragments (HPLC peak area)): 83.1% | metabolised at 2 h, 20 µg/ml ([1]; Swiss TO, pH 7.8, after 2 h incubation with mouse serum, read-out: % converted to CCK-8 fragments (HPLC peak area)): 100% | remaining at 1 h, 20 µg/ml ([1]; Swiss TO, pH 7.8, intact peptide peak, incubation time 1 h, mouse serum, 37° C., read-out: % Total CCK-like material): 16.9% | remaining at 2 h, 20 µg/ml ([1]; Swiss TO, pH 7.8, intact peptide peak, incubation time 2 h, mouse serum, 37° C., read-out: % Total CCK-like material): 0% | % Total CCK-like material ([1]; intact peptide peak, incubation time 0 h, mouse serum, 37° C.): 100% | % Total CCK-like material ([1]; peak CCK-8 fragment (B), incubation time 1 h): 39.3% | % Total CCK-like material ([1]; peak CCK-8 fragment (B), incubation time 2 h): 58.7% | % Total CCK-like material ([1]; peak CCK-8 fragment (C), incubation time 1 h): 43.8% | % Total CCK-like material ([1]; peak CCK-8 fragment (C), incubation time 2 h): 29.5% | % Total CCK-like material ([1]; peak CCK-8 fragment (D), incubation time 2 h): 11.8% | half-life [3]: 1 to 2 min

glycated tGLP-1: control peptide with a glucitol adduct on the amino-terminus (glucitol-HAEGTFTSDVSSYLEGQAAKEFIAWLVKGR; ends and bridges not checked; UniProt P01275 98-127, looked up)
induction of satiety (control experiment) (Swiss TO mice; control experiments in this test system): insufficient on its own to induce satiety
